Reference: patent publication US8741955B2, “D-serine transporter inhibitors as pharmaceutical compositions for the treatment of central nervous system disorders” (Allergan, Inc., priority 2011, dated 2014)
Entries after “also recorded” stand apart in the source; their conditions may differ.

Tests used:
[1] = test system: rat hippocampal astrocytes; test: [3H]D-serine transport into primary cultures of rat hippocampal astrocytes; format: cell-based; conditions: for IC50: Astrocyte, inhibition of [3H]D-serine transport, rat hippocampal astrocytes, means of at least two determinations; for fraction of D-serine transport represented by the component for which the compound shows higher affinity: two-component inhibition curves in astrocytes
asc-1 = biological target: T1, asc-1 (Rattus norvegicus, UniProt P63116); test: sodium-independent [3H]D-serine transport into rat forebrain synaptosomes; format: biochemical; conditions: inhibition of [3H]D-serine transport, rat brain synaptosomes; means of at least two determinations
T1 construct: from tissue; host or cells: rat forebrain P2 (synaptosome) fraction
T1 sequence (P63116 1-530): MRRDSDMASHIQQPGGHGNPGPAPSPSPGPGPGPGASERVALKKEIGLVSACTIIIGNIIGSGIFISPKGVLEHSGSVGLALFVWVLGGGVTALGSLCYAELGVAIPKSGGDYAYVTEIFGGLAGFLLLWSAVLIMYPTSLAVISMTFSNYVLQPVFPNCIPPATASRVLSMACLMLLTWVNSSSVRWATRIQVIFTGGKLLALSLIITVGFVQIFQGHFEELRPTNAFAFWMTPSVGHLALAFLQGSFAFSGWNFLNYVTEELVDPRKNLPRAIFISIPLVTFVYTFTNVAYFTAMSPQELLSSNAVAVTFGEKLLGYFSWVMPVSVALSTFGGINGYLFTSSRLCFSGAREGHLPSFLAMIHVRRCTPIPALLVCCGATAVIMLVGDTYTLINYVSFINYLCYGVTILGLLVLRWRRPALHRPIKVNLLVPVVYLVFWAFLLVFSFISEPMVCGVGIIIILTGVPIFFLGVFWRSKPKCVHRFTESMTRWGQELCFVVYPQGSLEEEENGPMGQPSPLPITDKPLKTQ
T1 sequence (Q794F9 1-527 partner): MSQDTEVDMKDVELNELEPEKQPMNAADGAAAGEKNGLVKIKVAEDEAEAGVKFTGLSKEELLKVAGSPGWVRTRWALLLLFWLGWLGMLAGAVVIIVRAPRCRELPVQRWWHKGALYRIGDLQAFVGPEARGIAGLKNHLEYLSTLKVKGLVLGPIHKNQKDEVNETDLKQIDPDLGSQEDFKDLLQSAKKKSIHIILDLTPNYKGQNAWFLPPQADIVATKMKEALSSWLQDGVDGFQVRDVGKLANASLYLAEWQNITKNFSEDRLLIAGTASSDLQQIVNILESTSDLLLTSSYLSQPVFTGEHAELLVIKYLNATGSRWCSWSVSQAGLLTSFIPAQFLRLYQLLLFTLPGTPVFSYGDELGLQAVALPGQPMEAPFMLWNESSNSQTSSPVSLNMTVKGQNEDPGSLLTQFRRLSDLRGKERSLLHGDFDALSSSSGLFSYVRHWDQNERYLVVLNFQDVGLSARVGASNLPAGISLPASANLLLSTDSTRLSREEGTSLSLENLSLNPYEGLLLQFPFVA
Procedure: Under the assay conditions used, the sodium-independent transport of D-serine by rodent forebrain synaptosomes is mediated by asc-1 (Rutter et al., 2007), and the sodium-dependent transport of D-serine into astrocytes in culture is mediated by an ASCT transporter, ASCT2 according to the literature (Ribeiro et al., 2002).
Synaptosome assays: a P2 fraction of rat forebrain was prepared and assayed immediately. Aliquots of the P2 preparation (approx. 1 mg of original tissue weight) were incubated in sodium-free assay buffer (CholineCl: 128 mM, KCl: 3.5 mM; KH2PO4: 1.5 mM; MgCl2: 1 mM; CaCl2: 1 mM; glucose: 10 mM; Tris-acetate buffer: 10 mM, pH7.4) containing [^3H]D-serine (final concentration of 50 nM) and test compounds in duplicate for 4 mins at room temperature. The synaptosomes containing radiolabel were collected by filtration onto Whatman GF/C filters, and washed twice with ice cold assay buffer. Filters were solubilized in scintillation fluid and radioactivity determined in a beta counter. IC50 values were determined as described for the cell-based assays above.

[2] = test system: amphetamine-induced hyperlocomotion in mice; test: amphetamine induced hyperactivity; format: in vivo; conditions: for effect on amphetamine-induced hyperactivity/hyperlocomotion: systemic administration, amphetamine 2 mg/kg s.c.
Procedure: C57B/6 male mice (n=5-10/group) were placed in an open field apparatus and their activity was measured for 30 minutes. At 30 minutes, they received a vehicle injection or injection of test compound followed by an injection of amphetamine (2 mg/kg, s.c.) at minute 45. Their activity levels were subsequently measured for another 1 hour post-injection. Total activity for each 5 minute bin (21 total bins) was added to establish the activity curve over the 105 minute testing.

[3] = test system: LTP in the rat hippocampal slice; test: LTP in the rat hippocampal slice preparation; conditions: 100 μM
human ASCT2 = biological target: T2, human ASCT2 (Homo sapiens, UniProt Q15758); test: transport into HEK cells expressing ASCT2; format: cell-based; conditions: [3H]L-serine transport, HEK cells
T2 construct: expressed in transfected cells; host or cells: HEK (human embryonic kidney) cells
T2 sequence (Q15758 1-541): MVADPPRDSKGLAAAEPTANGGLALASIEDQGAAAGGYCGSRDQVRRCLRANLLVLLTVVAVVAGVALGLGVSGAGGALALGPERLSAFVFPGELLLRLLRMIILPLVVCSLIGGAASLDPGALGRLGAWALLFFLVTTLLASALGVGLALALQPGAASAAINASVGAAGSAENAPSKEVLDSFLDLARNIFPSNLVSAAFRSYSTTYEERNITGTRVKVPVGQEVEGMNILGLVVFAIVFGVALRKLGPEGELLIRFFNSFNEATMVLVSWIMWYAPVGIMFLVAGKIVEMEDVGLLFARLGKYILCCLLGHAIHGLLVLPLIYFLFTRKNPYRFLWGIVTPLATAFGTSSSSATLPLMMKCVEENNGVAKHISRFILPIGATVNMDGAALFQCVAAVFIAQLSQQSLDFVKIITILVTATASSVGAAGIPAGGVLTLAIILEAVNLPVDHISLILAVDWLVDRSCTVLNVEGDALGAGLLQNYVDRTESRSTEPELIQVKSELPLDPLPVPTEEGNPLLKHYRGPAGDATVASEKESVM
Procedure: (§1) Cell-based assays: the transport of [^3H]L- or D-serine was measured in primary cultures of rat hippocampal astrocytes or in human embryonic kidney (HEK) cells expressing ASCT transporter sub-types. For the astrocyte assays, cells were plated on either 24- or 96-well plates at a density of 50,000 cells per well. For the HEK assays, cells were plated on coated 96-well plates at a density of 80,000 cells/well. Assays were conducted in duplicate at room temperature in assay buffer consisting of: NaCl: 150 mM, KCl: 2 mM; MgCl2: 1 mM; CaCl2: 1 mM; HEPES: Tris buffer: 10 mM, pH7.4. To assess the sodium-dependence of transport, NaCl was replaced in the assay buffer by equimolar choline chloride. Following aspiration of growth medium and 2 washes with assay buffer, cells were incubated with [^3H]L- or D-serine at a final concentration of 1 μM for 5 min (astrocytes) or 1 min (HEK cells), after which the incubation medium was aspirated and the cells washed twice with ice-cold assay buffer. Cells containing radiolabel were solubilized in 100 μl of 1% Triton-X100 and an aliquot counted in a beta counter. IC50 values were determined over a range of at least 6 concentrations and derived from curve-fitting algorithms available in GraphPad Prism 4.

ASCT2 = conditions: Utsunomiya-Tate 1996; Broer 1999; Torres-Zamorano 1998; cited from earlier work
human ASCT1 = biological target: T3, human ASCT1 (Homo sapiens, UniProt P43007); test: transport into HEK cells expressing ASCT1; format: cell-based; conditions: [3H]L-serine transport, HEK cells
T3 construct: expressed in transfected cells; host or cells: HEK (human embryonic kidney) cells
T3 sequence (P43007 1-532): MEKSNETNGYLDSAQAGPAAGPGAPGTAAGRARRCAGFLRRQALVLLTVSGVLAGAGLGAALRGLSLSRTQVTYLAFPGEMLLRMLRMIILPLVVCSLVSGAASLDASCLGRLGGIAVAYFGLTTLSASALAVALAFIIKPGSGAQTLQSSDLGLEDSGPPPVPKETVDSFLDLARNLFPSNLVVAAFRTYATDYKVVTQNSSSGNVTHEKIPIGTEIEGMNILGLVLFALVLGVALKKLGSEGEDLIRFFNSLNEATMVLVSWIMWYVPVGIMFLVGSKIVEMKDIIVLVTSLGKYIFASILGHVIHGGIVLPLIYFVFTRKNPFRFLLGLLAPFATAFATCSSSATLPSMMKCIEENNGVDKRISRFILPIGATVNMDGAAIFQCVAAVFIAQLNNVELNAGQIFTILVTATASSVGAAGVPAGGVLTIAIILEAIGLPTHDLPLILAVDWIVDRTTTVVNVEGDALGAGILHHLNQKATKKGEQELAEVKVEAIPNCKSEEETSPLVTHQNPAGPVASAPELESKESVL
Procedure: as §1

Compound | IC50 [1] | IC50 (asc-1) | also measured
NC(C(=O)O)c1ccccc1F (racemic) [DL-2-fluorophenylglycine] | 1570 µM | 348 µM | 
N[C@H](C(=O)O)c1ccc(F)cc1 [L-4-fluorophenylglycine] | 27.9 µM | 258 µM | effect on amphetamine-induced hyperlocomotion at 0.3 mg/kg ip ([2]; 0.3 mg/kg ip): significant effect; effect on amphetamine-induced hyperactivity/hyperlocomotion [2]: potent dose-dependent inhibitor
NC(=O)C[C@H](N)C(=O)O [L-asparagine] |  | 668 µM | 
N[C@@H](CO)C(=O)O [L-serine] | 57.9 µM | 9.6 µM | 
O=C(O)[C@@H]1C[C@@H](O)CN1 [L-trans-4-hydroxyproline] | 38.9 µM | > 10000 µM | selectivity for ASCT1 over ASCT2 (human ASCT1; listed as L-t-4OHPro): showed selectivity towards ASCT1; selectivity for ASCT1 over ASCT2 (human ASCT1; listed as L-trans-4OHPro): selective for ASCT1; fraction of D-serine transport represented by the component for which the compound shows higher affinity [1]: approximately 60%
O=C(O)[C@@H]1C[C@@H](Cc2ccc(Cl)cc2Cl)CN1 [R-gamma-2,4-dichlorobenzyl-L-proline] |  |  | effect on amphetamine-induced hyperactivity/hyperlocomotion [2]: effective
N[C@@H](CSCc1ccccc1)C(=O)O [S-benzyl-L-cysteine] |  | 86 µM | 

Second part, led by results:

IC50 [1] | IC50 (asc-1) | Compound | also measured
 | 453 µM | N[C@@H](CCC(=O)Nc1ccc([N+](=O)[O-])cc1)C(=O)O [L-GPNA, L-gamma-glutamyl-4-nitroanilide] | effect on LTP in the rat hippocampal slice [3]: enhance LTP
3000 µM | 62 µM | N[C@@H](CCC(=O)OCc1ccccc1)C(=O)O [L-glutamate-γ-benzyl ester] | 
1640 µM | 943 µM | NC(=O)CC[C@H](N)C(=O)O [L-glutamine] | selectivity for ASCT2 over ASCT1 (human ASCT2): showed selectivity towards ASCT2; also recorded: selective for ASCT2; fraction of D-serine transport represented by the component for which the compound shows higher affinity [1]: approximately 40%; affinity for ASCT2 reported in the literature (ASCT2): 23 to 70 µM
597 µM | 29.3 µM | N[C@@H](CSc1ccccc1)C(=O)O [S-phenyl-L-cysteine] | 
